Test results published in patent publication US10779531B2, “Insect repellent” (Kao Corporation, priority 2015, dated 2020).

Key:
[1] = system: carbon dioxide-sensitive sensory hair of an Asian tiger mosquito; assay: Evaluation of carbon dioxide response-inhibiting effect (nerve firing recording of sensory hair); assay type: in vivo; conditions: fragrance 1% in paraffin oil, 15 μL on filter paper, olfactory stimulation 1 second, nerve firings relative to paraffin oil, N=1; for pest or weed control at 1 %: Aedes albopictus, 1 s, read-out: Inhibition of carbon dioxide response (%)
Procedure: (§1) Asian tiger mosquitoes grown from eggs purchased from Sumika Technoservice Corporation were used. A transparent plastic pan was filled with water to a depth of approximately 1 cm, and a filter paper on which the eggs had been deposited was put therein. The larvae were fed with tropical fish feed (TetraMin) every day. After approximately 1 week, the pupae were collected with a dropper, and transferred into a 20 mL plastic cup, and the cup was placed in a netted cage. The adults were fed with 10 mass % sucrose contained in a 25 mL plastic tube. The males and females were kept together in one cage and allowed to mate for 5 days after eclosion. After 5 days of captivity, the adults were collected with an insect aspirator and anesthetized on ice for 5 minutes, and visually sorted into males and females to collect only the females. The wings and legs were removed from each female mosquito under anesthesia, and the female mosquito was pushed onto a double-sided adhesive tape pasted on a microscope slide with the back on the tape and thus fixed thereto, and the antennae and maxillary palpi were positioned, so as to achieve the accessibility of electrodes.
A 1 mol/L aqueous solution of potassium hydroxide was injected into a 50 mL syringe, and the syringe was horizontally fixed to a magnet stand with a clamp. A tungsten wire fixed to an electrode holder was horizontally inserted into the syringe, and polished by electrolysis under microscopic observation. A current was supplied from an AC power source to the syringe through the electrode holder via crocodile clips.
The Asian tiger mosquito prepared on a microscope slide was set under a microscope, and positioned so that the antennae were at the center of the view through a ×10 objective lens. A reference electrode was inserted in the eye of the insect. A pipette for providing an olfactory stimulus was placed near the maxillary palpi, and the objective lens was replaced with a ×100 objective lens. The recording electrode was brought close to the sensory hair, and carefully inserted into the sensory hair with a micromanipulator. The peg-like shape of the carbon dioxide-sensitive sensory hair of an Asian tiger mosquito can be confirmed under microscopic observation. After insertion of the electrode into the sensory hair, the spontaneous nerve firing pattern was investigated. Carbon dioxide the concentration of which had been adjusted to 0.1% was led to an olfactory stimulation apparatus via a silicone tube to stimulate the maxillary palpi for 1 second, and the carbon dioxide response was investigated.
The concentration of each of the fragrances listed in Table 4 was adjusted to 1% with paraffin oil, and the resultant was used as a sample. On a filter paper (3 mm×50 mm) 15 μL of the sample was dropped, and the filter paper was inserted in a Pasteur pipette. The Pasteur pipette was connected to a stimulation apparatus via a plastic tube, and olfactory stimulation was performed for 1 second while the response to carbon dioxide in the air was monitored, and thus the carbon dioxide response-inhibiting effect was evaluated. The number of nerve firings in 1 second after stimulation with paraffin oil as a solvent and the number of nerve firings in 1 second after stimulation with each sample were counted, and the ratio was used for evaluation of the response-inhibiting effect (N=1). Inhibitory rate (%)=100×([number of firings after stimulation with paraffin oil−number of firings after stimulation with sample]/[[number of firings after stimulation with paraffin oil]) (Equation 2)

[2] = system: female Asian tiger mosquitoes; assay: Evaluation of inhibitory effect on seeking behavior for heat source (thermoreception-inhibiting effect); assay type: in vivo, Asian tiger mosquito; conditions: fragrance 0.1% in ethanol, 50 μL on sheet on plate heater, landings counted after 30 seconds of contact, relative to ethanol only; for pest or weed control at 0.1 %: Aedes albopictus, 0.5 min, read-out: Inhibitory rate for seeking for heat source (%)
Procedure: (1) Preparation of Asian Tiger Mosquitoes
as §1, with “10% by” for “10”, “mass” for “mass %”, “females.” for “females. The wings and legs were removed from each female mosquito under anesthesia, and the female mosquito was pushed onto a double-sided adhesive tape pasted on a microscope slide with the back on the tape and thus fixed thereto, and the antennae and maxillary palpi were positioned, so as to achieve the accessibility of electrodes.”
(2) Evaluation of Inhibitory Effect on Seeking Behavior for Heat Source
Approximately 150 to 200 female Asian tiger mosquitoes were transferred in a plastic cage (30×30×30 cm). To monitor the behavior of the female mosquitoes from the top of the plastic cage, the top surface of the cage was replaced with an acrylic plate. A plate heater (multi-panel heater 16 W for small animals, manufactured by Vivaria) as a heat source was provided at a corner of the cage from the outside of the mesh with an area of 5×3 cm exposed. To take a photograph of the heat source from the top surface in experiment, a video camera (manufactured by Sony Corporation) was disposed above the top surface. A sheet for application of a sample was fixed to the heat source with a double-sided adhesive tape.
The concentration of a fragrance listed in Table 1 was adjusted to 0.1% with ethanol to prepare a sample, and 50 μL of the sample or ethanol as a solvent was administered in experiment. To activate the female mosquitoes, 1% of carbon dioxide was administered from the top for 1 second, and then the heat source was brought into contact with the cage. After 30 seconds of contact, a photograph of the heat source was taken to count the number of mosquitoes attracted. The sheet used for the heat source was discarded and replaced with another sheet every time the assay was completed. In view of the influence of a sample on the mosquitoes, the number of evaluations performed for one cage was limited to (7 samples+1 control) at a maximum. The inhibitory rate relative to the number of landings with application of ethanol solvent only was calculated for one set of assays (7 samples+1 control) to determine the inhibitory effect by using the following equation. Inhibitory rate (%)=100×(1−[number of landings with application of sample]/[number of landings with application of ethanol]) (Equation 1)

[3] = system: Adult Asian tiger mosquitoes; assay: Evaluation of inhibition of seeking behavior for human arm (landings on gloved hand); assay type: in vivo, Asian tiger mosquito; conditions: for Total landing rate (%) / Number of landings total: sample 0.4% in ethanol on cotton-gloved hand; for Total landing rate (%): relative to number of landings with control sample (ethanol) as 100%; for Number of landings total: sum total of 1, 2 and 3 minutes; for Number of landings 1 min / Number of landings 2 min / Number of landings 3 min: sample 0.4% in ethanol, sprayed 14 times (0.6 g) on cotton-gloved hand; for Number of landings 1 min: after 1 minute; for Number of landings 2 min: after 2 minutes; for Number of landings 3 min: after 3 minutes
From the text: Adult Asian tiger mosquitoes consisting of 220 females and 80 males each at 5 to 10 day old were purchased from Sumika Technoservice Corporation, and released in a 30 cm×30 cm×30 cm plastic cage (bug dorm).
The concentration of each of 2,4-dimethylcyclohex-3-ene-1-methanol (“floralol”, IFF Inc.) and octahydro-7-methyl-1,4-methanonaphthalen-6(2H)-one (“PLICATONE”, Firmenich SA) as evaluation samples was adjusted to 0.4% with ethanol. A sample containing only ethanol was used as a control.
Each of the evaluation samples and control sample was sprayed 14 times in total (0.6 g) to both sides of a hand wearing a 100% cotton glove doubly.
After application of the sample, the gloved hand was left to stand for 1 minute to volatilize ethanol, and the gloved hand with the sample applied thereto was then put in the plastic cage, and the number of mosquitoes which landed on the glove was counted every 1 minute.
The numbers of landings after 1 minute, 2 minutes, and 3 minutes, and the sum total of them were counted, and the landing rate relative to the number of landings with application of the control sample as 100% was calculated. This experiment was repeated three times.

CCCCCCCCCCO [1-Decanol, 1-decanol]
pest or weed control at 1 % [1]: 54%

CCCCCCCCO [1-Octanol, 1-octanol]
pest or weed control at 1 % [1]: 97%

C=CC(O)CCCCC (centres unmarked) [1-Octen-3-ol, 1-octen-3-ol]
pest or weed control at 1 % [1]: 55%

CC1C(=O)c2ccccc2C1(C)C (centres unmarked) [2,3,3-Trimethyl-2H-inden-1-one, 2,3,3-trimethyl-2H-inden-1-one]
pest or weed control at 0.1 % [2]: 76.2%

CC1=CC(C)C(CO)C(C)C1 (centres unmarked) [2,4,6-Trimethyl-3-cyclohexene-1-methanol, 2,4,6-trimethyl-3-cyclohexene-1-methanol]
pest or weed control at 1 % [1]: 61%

CC1=CC(C)C(CO)CC1 (centres unmarked) [2,4-Dimethylcyclohex-3-ene-1-methanol, 2,4-dimethylcyclohex-3-ene-1-methanol]
Total landing rate (%) [3]: 71.1%
Number of landings total [3]: 16
Number of landings 1 min [3]: 3
Number of landings 2 min [3]: 6
Number of landings 3 min [3]: 7
pest or weed control at 1 % [1]: 67%

CC1=C(C=O)C(C)(C)CC=C1 [2,6,6-trimethylcyclohexa-1,3-diene-1-carbaldehyde]
pest or weed control at 0.1 % [2]: 91.7%

Cc1csc(C(C)C)n1 [2-Isopropyl-4-methylthiazol, 2-isopropyl-4-methylthiazol]
pest or weed control at 1 % [1]: 71%

CCCc1ccc(O)c(OC)c1 [2-Methoxy-4-propylphenol, 2-methoxy-4-propylphenol]
pest or weed control at 1 % [1]: 95%

COC(OC)C(C)c1ccccc1 (centres unmarked) [2-Phenylpropionaldehyde dimethyl acetal, 2-phenylpropionaldehyde dimethyl acetal]
pest or weed control at 0.1 % [2]: 66.8%

CCC(C)(O)CCc1ccccc1 (centres unmarked) [3-Methyl-1-phenyl-3-pentanol, 3-methyl-1-phenyl-3-pentanol]
pest or weed control at 0.1 % [2]: 69.3%

CCCCCC1=C(C)CCC1=O [3-Methyl-2-pentylcyclopent-2-en-1-one, 3-methyl-2-pentylcyclopent-2-en-1-one]
pest or weed control at 1 % [1]: 68%

CCCC1CC(=O)C=C(C)C1 (centres unmarked) [3-Methyl-5-propyl-2-cyclohexen-1-one, 3-methyl-5-propyl-2-cyclohexen-1-one]
pest or weed control at 0.1 % [2]: 97.2%

Cc1ncsc1CCO [4-Methyl-5-thiazoleethanol, 4-methyl-5-thiazoleethanol]
pest or weed control at 0.1 % [2]: 74.5%

Cc1ccc2ncccc2c1 [6-Methylquinoline, 6-methylquinoline]
pest or weed control at 0.1 % [2]: 64.7%

COC(C)(C)CCCC(C)CC=O (centres unmarked) [7-Methoxy-3,7-dimethyloctanal, 7-methoxy-3,7-dimethyloctanal]
pest or weed control at 0.1 % [2]: 72.4%

C=CCCCCCCCCO [9-Decen-1-ol, 9-decen-1-ol]
pest or weed control at 1 % [1]: 56%

CC=C1CC2CC1C1CCC(=O)OC21 (centres unmarked) [9-ethylidene-3-oxatricyclo(6.2.1.0^2,7)undecan-4-one]
pest or weed control at 0.1 % [2]: 85.9%

CCC(=O)OCc1ccccc1 [Benzyl propionate, benzyl propionate]
pest or weed control at 1 % [1]: 97%

CCOC(=O)C(C)C1CCCCC1 (centres unmarked) [Ethyl 2-cyclohexylpropionate, ethyl 2-cyclohexylpropionate]
pest or weed control at 1 % [1]: 48%

CCCCC(CC)C(=O)OCC (centres unmarked) [Ethyl 2-ethylhexanoate, ethyl 2-ethylhexanoate]
pest or weed control at 1 % [1]: 51%

CCOC(=O)Cc1ccccc1 [Ethyl phenylacetate, ethyl phenylacetate]
pest or weed control at 1 % [1]: 79%

CC1=CC(C)C(C=O)C(C)C1 (centres unmarked) [Isocyclocitral, isocyclocitral]
Inhibition of carbon dioxide response (%) [1]: 61%

O=C1CCC2CCCCC2O1 (centres unmarked) [Octahydro-2H-1-benzopyran-2-one, octahydro-2H-1-benzopyran-2-one]
pest or weed control at 0.1 % [2]: 93.3%

O=CCOc1ccccc1 [Phenoxyacetaldehyde, phenoxyacetaldehyde]
pest or weed control at 0.1 % [2]: 89%

CC/C=C\CCOC(C)=O [cis-3-Hexenyl acetate, cis-3-hexenyl acetate]
pest or weed control at 1 % [1]: 50%

CC(=O)OC1CCCCC1C(C)(C)C (centres unmarked) [o-tert-Butylcyclohexyl acetate, o-tert-butylcyclohexyl acetate]
pest or weed control at 1 % [1]: 87%

COC1CC2CC1C1CC(C=O)CC21 (centres unmarked) [octahydro-5-methoxy-4,7-methano-1H-indene-2-carboxaldehyde]
pest or weed control at 0.1 % [2]: 89.2%

CC1CC2C3CCC(C3)C2CC1=O (centres unmarked) [octahydro-7-methyl-1,4-methanonaphthalen-6(2H)-one]
Total landing rate (%) [3]: 53.3%
Number of landings total [3]: 12
Number of landings 1 min [3]: 2
Number of landings 2 min [3]: 4
Number of landings 3 min [3]: 6
pest or weed control at 0.1 % [2]: 81.3%

CCC/C=C/COC(C)=O [trans-2-Hexenyl acetate, trans-2-hexenyl acetate]
pest or weed control at 1 % [1]: 48%

CCCCC1CCC(=O)O1 (centres unmarked) [γ-Octalactone, γ-octalactone]
Inhibitory rate for seeking for heat source (%) [2]: 87.4%
